# Laboratory results reported in PubChem BioAssay (NCI).
#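 Step 1: Grow cells in 96-well plates. Step 2: Expose to compound for 48 hours at 5 concentrations. Step 3: Interpolate endpoints linearly; if unreached, use highest concentration. GI50 = concentration required for 50% inhibition of growth. Definition used: TGI = concentration required for complete inhibition of growth.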
# Tests used:
# Assay in all cases: NCI tumour cell line growth inhibition, 48 h
# MDA-MB-231 breast = tested on: MDA-MB-231 breast
# DMS 273 small cell lung = tested on: DMS 273 small cell lung
# HOP-18 NSCLC = tested on: HOP-18 NSCLC
# M19-MEL melanoma = tested on: M19-MEL melanoma
# RXF-631 renal = tested on: RXF-631 renal
# SNB-78 CNS = tested on: SNB-78 CNS
# P388 leukemia = tested on: P388 leukemia
# P388/ADR leukemia = tested on: P388/ADR leukemia
# SN12K1 renal = tested on: SN12K1 renal
SMILES,TGI (MDA-MB-231 breast) [µM],TGI (DMS 273 small cell lung) [µM],TGI (HOP-18 NSCLC) [µM],TGI (M19-MEL melanoma) [µM],TGI (SNB-78 CNS) [µM],other results
Oc1cn(-c2ccc(Cl)cc2)nc1-c1n[nH]c(=S)n1-c1ccccc1,> 100,–,–,–,–,–
COc1ccc2c(c1)CCCN2CCCCCCCCCCN(CCC(C)C)CCC(C)C,–,23.2,24.7,30.7,38.1,TGI (RXF-631 renal): 27.3 µM
Nc1n[nH]c(=O)c2c1c(I)cn2C1OC(CO)C(O)C1O (stereo not given),–,2.63,> 100,–,6.8,TGI (RXF-631 renal): 7.36 µM
CN(C)CCNC(=O)c1cccc2ccc(-c3ccc(F)cc3)nc12,–,11.8,54.1,15.9,31.4,TGI (P388 leukemia): 3.66 µM; TGI (P388/ADR leukemia): 5.17 µM; TGI (SN12K1 renal): 12.2 µM
COc1ccc(-c2nc3ncccn3c2-c2ccc(SC)cc2)cc1,> 100,–,–,–,–,–
Cc1cc(/N=C/c2ccc(F)cc2)n(-c2ccccc2)n1,> 100,–,–,–,–,–
O=C(Nc1ccc([N+](=O)[O-])cc1[N+](=O)[O-])C(=O)C(C(=O)c1ccc2ccccc2c1)C1OC(=O)c2ccccc21 (stereo not given),–,61.4,–,29.6,82.5,TGI (RXF-631 renal): 66.3 µM
Cc1cc2c(cc1C(=O)c1ccc(N)cc1)OCO2,> 100,–,–,–,–,–
COc1cc(/C=C/C(=O)Oc2ccc(NC(C)=O)cc2)ccc1C(=O)O/C=C/c1ccccc1,–,> 100,> 100,> 100,> 100,TGI (P388 leukemia): > 100 µM; TGI (P388/ADR leukemia): > 100 µM; TGI (SN12K1 renal): > 100 µM
CN(C)CCCn1cnc2cc(Cl)c(Cl)cc21,> 100,–,–,–,–,–
NCCc1cc(O)c(O)cc1O,44.6,–,–,–,–,–
CCOC(=O)c1c2c(n(Cc3ccccc3)c1C)C(=O)C(=O)c1ccccc1-2,1.99,–,–,–,–,–
CCCOC(=O)CNC(=O)OC(C)(C)C,–,> 100,> 100,> 100,> 100,TGI (RXF-631 renal): > 100 µM
N=C1C(=N)c2ccccc2-c2ccccc21.N=C1C(=N)c2ccccc2-c2ccccc21.N=C1C(=N)c2ccccc2-c2ccccc21.[Cl-].[Ru+2],–,5.45,7.76,2.86,3.88,GI50 (DMS 273 small cell lung): 2.15 µM; GI50 (HOP-18 NSCLC): 3.14 µM; GI50 (M19-MEL melanoma): 1.46 µM; GI50 (SNB-78 CNS): 1.65 µM
O=P1(c2ccccc2)Nc2ccccc2SSc2ccccc2N1,–,33.7,36.6,34.4,56.3,TGI (P388 leukemia): > 38.6 µM; TGI (P388/ADR leukemia): 31.2 µM; TGI (SN12K1 renal): 30.7 µM
Cc1cccc2c1Sc1ccccc1C2NC(=O)CCN(C)C (stereo not given),–,> 100,–,> 100,> 100,–
CCc1nc(N)nc(N)c1-c1ccc([N+](C)(C)C)cc1,> 100,–,–,–,–,–
COc1ccc(/C(Cl)=C(\C=O)c2ccc(OC)cc2)cc1,–,> 100,> 100,> 100,> 100,TGI (RXF-631 renal): > 100 µM
COc1ccc(C2=C3SC=c4ccccc4=C3ON=C2c2ccccc2)cc1,> 100,–,–,–,–,–
CC(=O)NNc1nc(-c2ccc([N+](=O)[O-])cc2)c(C#N)c(=O)n1C,34.2,–,–,–,–,–
CN(C)C(=O)/C=C/c1c[nH]c(=O)[nH]c1=O,–,> 500,> 500,–,–,TGI (P388 leukemia): > 281 µM; TGI (P388/ADR leukemia): > 281 µM; TGI (SN12K1 renal): > 500 µM
